Results taken from PubChem BioAssay (NCI).
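Compound exposure: 48 hours, 5 concentrations, 96-well plates. Definition used: TGI = concentration required for complete inhibition of growth.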

Key:
Test in all cases: DTP human tumour cell line panel, 48 h
SR leukemia = tested on: SR leukemia
MOLT-4 leukemia = tested on: MOLT-4 leukemia
A498 renal = tested on: A498 renal
SK-MEL-5 melanoma = tested on: SK-MEL-5 melanoma
IGROV1 ovarian = tested on: IGROV1 ovarian
HOP-92 NSCLC = tested on: HOP-92 NSCLC
OVCAR-3 ovarian = tested on: OVCAR-3 ovarian
TK-10 renal = tested on: TK-10 renal
SF-268 CNS = tested on: SF-268 CNS
SF-539 CNS = tested on: SF-539 CNS
U251 CNS = tested on: U251 CNS
HT29 colon = tested on: HT29 colon
COLO 205 colon = tested on: COLO 205 colon
HCT-116 colon = tested on: HCT-116 colon
HOP-18 NSCLC = tested on: HOP-18 NSCLC
RXF 393 renal = tested on: RXF 393 renal
OVCAR-5 ovarian = tested on: OVCAR-5 ovarian
NCI-H226 lung = tested on: NCI-H226 lung

Compound	TGI (SR leukemia)	TGI (MOLT-4 leukemia)	TGI (A498 renal)	TGI (SK-MEL-5 melanoma)	TGI (IGROV1 ovarian)	TGI (HOP-92 NSCLC)	TGI (OVCAR-3 ovarian)	TGI (TK-10 renal)	TGI (SF-268 CNS)	TGI (SF-539 CNS)	TGI (U251 CNS)	TGI (HT29 colon)	TGI (COLO 205 colon)	TGI (HCT-116 colon)	TGI (HOP-18 NSCLC)	TGI (RXF 393 renal)	TGI (OVCAR-5 ovarian)	TGI (NCI-H226 lung)
CC(OC1CC(=O)CC2C(=O)C=CC(=O)C12)c1ccccc1 (stereo unspecified)	42.8 µM	> 49.2 µM	32 µM	33.6 µM	31.4 µM	2.97 µM	33.3 µM	31.6 µM	40.9 µM	34.5 µM	27.9 µM	33 µM	32 µM	22.4 µM	32.2 µM	35.8 µM	31.6 µM	36.5 µM
Nc1ccc(C(=O)NN2C(=O)C(Cl)C2c2cc(Br)cc(Br)c2O)cc1 (stereo unspecified)	> 100 µM	> 100 µM	–	65.5 µM	> 100 µM	> 100 µM	–	> 100 µM	41.6 µM	57 µM	> 100 µM	> 100 µM	> 100 µM	> 100 µM	38.2 µM	79.8 µM	> 100 µM	45.8 µM
COc1cc(C(C#N)NNC(=O)Cc2ccccc2)cc(OC)c1OC (stereo unspecified)	> 100 µM	> 100 µM	–	> 100 µM	> 100 µM	> 100 µM	> 100 µM	> 100 µM	> 100 µM	> 100 µM	> 100 µM	> 100 µM	> 100 µM	> 100 µM	> 100 µM	> 100 µM	> 100 µM	> 100 µM
C=CC1(c2ccccc2Cl)N/C(=C/OCC)CO1 (stereo unspecified)	> 100 µM	> 100 µM	> 100 µM	> 100 µM	> 100 µM	> 100 µM	> 100 µM	> 100 µM	> 100 µM	> 100 µM	> 100 µM	> 100 µM	> 100 µM	> 100 µM	> 100 µM	> 100 µM	> 100 µM	> 100 µM
O=[N+]([O-])c1cc2c(cc1O)[nH]c1cccc([N+](=O)[O-])c12	> 100 µM	> 100 µM	–	> 100 µM	–	–	> 100 µM	> 100 µM	> 100 µM	> 100 µM	–	> 100 µM	> 100 µM	> 100 µM	> 100 µM	–	> 100 µM	> 100 µM
COc1ccc2nc3ccccc3c(NCCCCCN(CCCl)CCCl)c2c1	0.0101 µM	–	–	0.433 µM	–	0.719 µM	0.963 µM	1.38 µM	0.329 µM	–	0.5 µM	2.84 µM	0.429 µM	–	> 27.3 µM	–	1.35 µM	0.801 µM
COc1ccc(OC)c(/C=C/C(=O)C(C)(C)C)c1	–	55.1 µM	80 µM	29.1 µM	42.6 µM	44.1 µM	49.5 µM	72.7 µM	–	38.4 µM	43.1 µM	64.1 µM	33.3 µM	31.8 µM	38.9 µM	34.3 µM	–	35.4 µM
CCOc1ccccc1NC(=O)C(=O)C(C(=O)c1ccc2ccccc2c1)C1OC(=O)c2ccccc21 (stereo unspecified)	–	30.3 µM	30.5 µM	24.5 µM	35.2 µM	38.1 µM	52 µM	54.8 µM	53.1 µM	24.8 µM	22.5 µM	76.4 µM	29.7 µM	22.3 µM	36.3 µM	9.05 µM	46.1 µM	7.06 µM
CCCCCCCCCCCCC/C=C1\C[C@H](O)COC1=O	51.2 µM	–	33.7 µM	26.6 µM	32.3 µM	24.7 µM	31.7 µM	31.8 µM	38 µM	35.8 µM	32 µM	30.6 µM	–	31.2 µM	31.6 µM	42.6 µM	33.5 µM	32.9 µM
CN/C=C(/c1ccc(OC)cc1)C(O)c1ccc(OC)c(OC)c1 (stereo unspecified)	> 100 µM	> 100 µM	> 100 µM	> 100 µM	> 100 µM	> 100 µM	> 100 µM	> 100 µM	–	> 100 µM	> 100 µM	> 100 µM	> 100 µM	> 100 µM	> 100 µM	> 100 µM	> 100 µM	> 100 µM
NCCn1ccc(NC(c2ccccc2)(c2ccccc2)c2ccccc2)nc1=O	46.2 µM	44.8 µM	> 100 µM	–	> 100 µM	27.4 µM	52.6 µM	85 µM	31.4 µM	31.3 µM	39.4 µM	31.1 µM	78.6 µM	35.5 µM	> 100 µM	21.3 µM	> 100 µM	32.8 µM
CC(C)[C@H]1CO[C@@H]2O[C@H](C)CC(=O)N21	> 100 µM	> 100 µM	–	> 100 µM	> 100 µM	> 100 µM	> 100 µM	> 100 µM	> 100 µM	> 100 µM	> 100 µM	> 100 µM	> 100 µM	> 100 µM	> 100 µM	> 100 µM	–	> 100 µM
Cc1cccc(Cl)c1NC(N)=S	–	> 100 µM	> 100 µM	> 100 µM	> 100 µM	> 100 µM	78.6 µM	> 100 µM	> 100 µM	> 100 µM	49.7 µM	> 100 µM	> 100 µM	35.9 µM	98.6 µM	–	> 100 µM	> 100 µM
Cc1cc(Cl)ccc1NC(=O)C(=O)Cc1ccc([N+](=O)[O-])c([N+](=O)[O-])c1CC(=O)C(=O)Nc1ccc(Cl)cc1C	> 100 µM	> 100 µM	> 100 µM	> 100 µM	> 100 µM	> 100 µM	> 100 µM	> 100 µM	> 100 µM	> 100 µM	> 100 µM	> 100 µM	> 100 µM	> 100 µM	> 100 µM	> 100 µM	> 100 µM	> 100 µM
